Results taken from ChEMBL document CHEMBL3779789, “Tricyclic pyrazoles. Part 8. Synthesis, biological evaluation and modelling of tricyclic pyrazole carboxamides as potential CB2 receptor ligands with antagonist/inverse agonist properties” (Eur J Med Chem, 2016).
Calls of active or inactive are those of the source. The rule behind the calls is not given here.

Legend:
Cannabinoid receptor 2 [1] = target: T1, Cannabinoid receptor 2 (Homo sapiens, UniProt P34972); assay: Displacement of [3H]CP55940 from human CB2 receptor expressed in HEK293-EBNA cell membrane incubated for 90 mins by liquid scintillation counting method; type: cell membranes
Cannabinoid receptor 1 [2] = target: T2, Cannabinoid receptor 1 (Homo sapiens, UniProt P21554); assay: Displacement of [3H]CP55940 from human CB1 receptor expressed in HEK293-EBNA cell membrane at 40 uM incubated for 90 mins by liquid scintillation counting method relative to control; type: cell membranes
[3] = Selectivity ratio of Ki for human CB1 receptor expressed in HEK293-EBNA cell membrane to Ki for human CB2 receptor expressed in HEK293-EBNA cell membrane; type: cell-based
Cannabinoid receptor 1 [4] = target: T2, Cannabinoid receptor 1; assay: Displacement of [3H]CP55940 from human CB1 receptor expressed in HEK293-EBNA cell membrane incubated for 90 mins by liquid scintillation counting method; type: cell membranes
Cannabinoid receptor 2 [5] = target: T1, Cannabinoid receptor 2; assay: Displacement of [3H]CP55940 from human CB2 receptor expressed in HEK293-EBNA cell membrane at 40 uM incubated for 90 mins by liquid scintillation counting method relative to control; type: cell membranes
Cannabinoid receptor 2 [6] = target: T1, Cannabinoid receptor 2; assay: Antagonist/inverse agonist activity at human CB2 receptors expressed in human Chem4 cell membrane incubated for 30 mins by [35S]GTPgammaS binding assay; type: functional, cell membranes
[7] = target: Cannabinoid receptor 2 (Mus musculus) (UniProt P47936); assay: Antagonist activity at CB2 receptor in mouse BV2 cells assessed as reversal of WIN55,212-2-induced reduction of LPS-induced PGE2 production at 10 fold Ki concentration incubated for 16 hrs by ELISA; type: cell-based; conditions: BV-2
[8] = target: Cannabinoid receptor 2 (Mus musculus) (UniProt P47936); assay: Antagonist/inverse agonist activity at CB2 receptor in mouse BV2 cells assessed as increase in LPS-induced PGE2 production at 10 fold Ki concentration incubated for 16 hrs by ELISA; type: cell-based; conditions: BV-2
[9] = target: Cannabinoid receptor 2 (Mus musculus) (UniProt P47936); assay: Antagonist/inverse agonist activity at CB2 receptor in mouse BV2 cells assessed as increase in LPS-induced PGE2 production at 10 fold Ki concentration incubated for 16 hrs by ELISA in presence of CB2 antagonist/inverse agonist SR144528; type: cell-based; conditions: BV-2

T2 sequence (P21554 whole entry): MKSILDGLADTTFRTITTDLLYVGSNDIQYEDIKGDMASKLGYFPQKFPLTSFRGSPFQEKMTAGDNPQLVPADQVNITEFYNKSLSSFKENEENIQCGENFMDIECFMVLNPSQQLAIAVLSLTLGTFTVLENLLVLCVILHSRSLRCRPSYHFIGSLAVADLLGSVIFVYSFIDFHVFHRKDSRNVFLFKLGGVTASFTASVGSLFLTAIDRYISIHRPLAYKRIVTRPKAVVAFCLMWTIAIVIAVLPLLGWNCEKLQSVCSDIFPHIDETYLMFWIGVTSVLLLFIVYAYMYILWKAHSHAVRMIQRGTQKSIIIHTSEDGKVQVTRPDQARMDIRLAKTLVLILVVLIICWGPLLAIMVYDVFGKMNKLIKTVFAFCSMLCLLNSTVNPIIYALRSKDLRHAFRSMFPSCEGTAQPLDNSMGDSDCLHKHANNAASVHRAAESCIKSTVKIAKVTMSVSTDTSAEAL
Sequence of Cannabinoid receptor 2 (Mus musculus) (P47936 whole entry): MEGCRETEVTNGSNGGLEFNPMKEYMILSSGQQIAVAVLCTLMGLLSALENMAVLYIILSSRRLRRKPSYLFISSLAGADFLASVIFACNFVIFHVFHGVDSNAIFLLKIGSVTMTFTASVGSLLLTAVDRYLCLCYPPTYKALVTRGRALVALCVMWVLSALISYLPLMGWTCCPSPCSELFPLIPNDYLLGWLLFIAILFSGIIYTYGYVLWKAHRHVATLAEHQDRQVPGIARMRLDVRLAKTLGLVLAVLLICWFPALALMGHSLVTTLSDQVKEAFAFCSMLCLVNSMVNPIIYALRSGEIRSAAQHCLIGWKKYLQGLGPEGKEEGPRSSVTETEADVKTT
T1 sequence (P34972 whole entry): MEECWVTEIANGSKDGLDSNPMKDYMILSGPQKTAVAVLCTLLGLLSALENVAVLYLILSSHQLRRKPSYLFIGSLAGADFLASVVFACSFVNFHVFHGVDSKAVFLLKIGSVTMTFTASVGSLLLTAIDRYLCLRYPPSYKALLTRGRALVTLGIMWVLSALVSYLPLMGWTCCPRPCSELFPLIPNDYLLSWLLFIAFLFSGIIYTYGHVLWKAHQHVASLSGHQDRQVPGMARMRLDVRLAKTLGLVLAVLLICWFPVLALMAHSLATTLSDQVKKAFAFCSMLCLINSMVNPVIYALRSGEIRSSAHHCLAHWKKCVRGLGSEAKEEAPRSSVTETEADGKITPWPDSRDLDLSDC

Row | Compound | Ki (Cannabinoid receptor 2 [1]) | Activity (Cannabinoid receptor 1 [2]) | Ratio Ki [3] | Ki (Cannabinoid receptor 1 [4]) | Activity (Cannabinoid receptor 2 [5]) | IC50 (Cannabinoid receptor 2 [6]) | Activity [7] | Activity [8] | Activity [9]
1 | O=C(NN1CCCCC1)c1nn(-c2ccc(Cl)cc2Cl)c2c1CCc1cc(C3CC3)ccc1-2 | 143 nM | > 70% | > 280 | > 40000 nM | > 70% |  |  |  | 
2 | O=C(NN1CCCCC1)c1nn(-c2ccc(Cl)cc2Cl)c2c1Cc1cc(C3CC3)ccc1-2 | 69.4 nM | > 70% | 26.7 | 1850 nM | > 70% | 294 nM |  |  | 
3 | O=C(NN1CCCC1)c1nn(-c2ccc(Cl)cc2Cl)c2c1ccc1cc(C3CC3)ccc12 | > 40000 nM | > 70% |  | > 40000 nM | > 70% |  |  |  | 
4 | O=C(c1nn(-c2ccc(Cl)cc2Cl)c2c1Cc1cc(C3CC3)ccc1-2)N1CCCCC1 | 414 nM | > 70% | > 24.2 | > 10000 nM | > 70% |  |  |  | 
5 | CC1(C)C2CC[C@@](C)(C2)C1NC(=O)c1nn(-c2ccc(Cl)cc2Cl)c2c1ccc1cc(C3CC3)ccc12 (stereo partly drawn) | > 40000 nM | > 70% |  | > 40000 nM | > 70% |  |  |  | 
6 | O=C(NC12CC3CC(CC(C3)C1)C2)c1nn(-c2ccc(Cl)cc2Cl)c2c1Cc1cc(C3CC3)ccc1-2 | 4 nM | > 70% | > 2230 | > 10000 nM | > 70% | 50.7 nM | Active | inactive | inactive
7 | O=C(NN1CCCC1)c1nn(-c2ccc(Cl)cc2Cl)c2c1Cc1cc(C3CCCCC3)ccc1-2 | 515 nM | > 70% | > 19.4 | > 10000 nM | > 70% |  |  |  | 
8 | O=C(NN1CCCCC1)c1nn(-c2ccc(Cl)cc2Cl)c2c1Cc1cc(C3CCCCC3)ccc1-2 | 509 nM | > 70% | > 19.6 | > 10000 nM | > 70% |  |  |  | 
9 | O=C(c1nn(-c2ccc(Cl)cc2Cl)c2c1ccc1cc(C3CC3)ccc12)N1CCCCC1 | > 40000 nM | > 70% |  | > 40000 nM | > 70% |  |  |  | 
10 | CC1(C)C2CC[C@@](C)(C2)C1NC(=O)c1nn(-c2ccc(Cl)cc2Cl)c2c1Cc1cc(C3CCCCC3)ccc1-2 (stereo partly drawn) | > 10000 nM | > 70% |  | > 10000 nM | > 70% |  |  |  | 
11 | CC1(C)[C@@H]2CC[C@]1(C)[C@H](NC(=O)c1nn(-c3ccc(Cl)cc3Cl)c3c1Cc1cc(C4CC4)ccc1-3)C2 | 38 nM | > 70% | > 1060 | > 40000 nM | > 70% | 26.9 nM | Active | inactive | Active
12 | CC1(C)C2CC[C@@](C)(C2)C1NC(=O)c1nn(-c2ccc(Cl)cc2Cl)c2c1Cc1cc(C3CC3)ccc1-2 (stereo partly drawn) | 6 nM | > 70% | > 6940 | > 40000 nM | > 70% | 80.4 nM | Active | Active | inactive
13 | CC1(C)C2CCC(CNC(=O)c3nn(-c4ccc(Cl)cc4Cl)c4c3CCc3cc(C5CC5)ccc3-4)C1C2 (stereo not drawn) | > 10000 nM | > 70% |  | > 10000 nM | > 70% |  |  |  | 
14 | O=C(NN1CCOCC1)c1nn(-c2ccc(Cl)cc2Cl)c2c1Cc1cc(C3CC3)ccc1-2 | 198 nM | > 70% | 20.4 | 4030 nM | > 70% |  |  |  | 
15 | O=C(NN1CCCCC1)c1nn(-c2ccc(Cl)cc2Cl)c2c1ccc1cc(C3CC3)ccc12 | 825 nM | > 70% | > 48.5 | > 40000 nM | > 70% |  |  |  | 
16 | O=C(NN1CCCC1)c1nn(-c2ccc(Cl)cc2Cl)c2c1Cc1cc(C3CC3)ccc1-2 | 152 nM | > 70% | 27.7 | 4210 nM | > 70% |  |  |  | 
17 | CC1(C)C2CC[C@@](C)(C2)C1NC(=O)c1nn(-c2ccc(Cl)cc2Cl)c2c1CCc1cc(C3CC3)ccc1-2 (stereo partly drawn) | 5520 nM | > 70% | > 7.25 | > 40000 nM | > 70% |  |  |  | 
